Values of other authors, collected in US20070066580A1, “Novel aldosterone antagonists and uses thereof” (Recordati Ireland Limited, priority 2005, published 2007).

What was measured:
MR = target: T1, MR (Homo sapiens, UniProt P08235); conditions: cited from earlier work
T1 sequence (P08235 1-984): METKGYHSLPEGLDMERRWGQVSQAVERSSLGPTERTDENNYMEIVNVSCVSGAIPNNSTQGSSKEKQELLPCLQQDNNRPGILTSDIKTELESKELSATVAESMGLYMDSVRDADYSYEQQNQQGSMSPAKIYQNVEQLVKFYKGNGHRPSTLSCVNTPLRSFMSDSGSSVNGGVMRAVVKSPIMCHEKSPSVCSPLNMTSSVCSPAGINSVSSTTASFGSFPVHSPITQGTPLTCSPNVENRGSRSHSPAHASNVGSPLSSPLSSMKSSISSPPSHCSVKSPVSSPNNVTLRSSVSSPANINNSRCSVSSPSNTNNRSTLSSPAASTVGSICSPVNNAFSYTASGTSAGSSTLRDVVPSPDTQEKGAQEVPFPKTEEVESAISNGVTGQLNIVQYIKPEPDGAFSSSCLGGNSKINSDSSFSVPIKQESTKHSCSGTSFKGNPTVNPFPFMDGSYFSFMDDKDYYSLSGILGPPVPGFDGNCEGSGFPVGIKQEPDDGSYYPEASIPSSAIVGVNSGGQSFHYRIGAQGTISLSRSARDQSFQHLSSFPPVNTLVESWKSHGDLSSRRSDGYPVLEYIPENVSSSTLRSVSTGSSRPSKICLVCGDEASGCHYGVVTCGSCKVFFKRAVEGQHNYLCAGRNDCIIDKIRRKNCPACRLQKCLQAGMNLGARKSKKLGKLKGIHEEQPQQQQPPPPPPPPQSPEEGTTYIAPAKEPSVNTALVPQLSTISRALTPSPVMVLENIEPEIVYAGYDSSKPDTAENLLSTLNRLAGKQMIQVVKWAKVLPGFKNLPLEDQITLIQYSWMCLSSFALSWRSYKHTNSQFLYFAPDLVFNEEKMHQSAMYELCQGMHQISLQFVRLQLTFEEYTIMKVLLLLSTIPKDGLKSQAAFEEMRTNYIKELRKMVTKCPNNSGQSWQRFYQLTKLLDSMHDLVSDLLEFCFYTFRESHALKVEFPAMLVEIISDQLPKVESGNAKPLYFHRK

[1] = severe heart failure (NYHA class IV), plus diuretics, versus placebo plus diuretics; cited from earlier work
[2] = cited from earlier work

CC(=O)S[C@@H]1CC2=CC(=O)C=C[C@]2(C)[C@H]2CC[C@@]3(C)[C@@H]([C@@H]4C[C@@H]4[C@@]34CCC(=O)O4)[C@H]12 [Mespirenone]
anti-MR effectiveness compared with spironolactone (MR): about three times higher

CCOC(=O)[C@H](CCc1ccccc1)N[C@@H](C)C(=O)N1CCC[C@H]1C(=O)O [enalapril]
reduction of mortality at one year [1]: 31%

COC(=O)[C@@H]1CC2=CC(=O)CC[C@]2(C)[C@@]23O[C@@H]2C[C@@]2(C)[C@@H](CC[C@@]24CCC(=O)O4)[C@H]13 [eplerenone]
potency in vivo as % of spironolactone [2]: 50-75%

C[C@]12C=CC(=O)C=C1[C@@H]1C[C@@H]1[C@H]1[C@@H]3[C@@H]4C[C@@H]4[C@@]4(CCC(=O)O4)[C@@]3(C)CC[C@@H]12 [spirorenone]
antimineralocorticoid potency, times more potent than spironolactone (MR): approximately 7.5 times
